Measurements published in paper PMC9995496, “A screen for MeCP2-TBL1 interaction inhibitors using a luminescence-based assay” (Scientific Reports, 2023).

target: T1, MeCP2-TBL1 interaction (MeCP2-SmBiT / TBL1-LgBiT) (Mus musculus, UniProt Q9QXE7); experiment: MeCP2-TBL1 NanoLuc luciferase complementation assay (cell-free, extracts of transfected HEK293 cells); assay type: binding, human; conditions: primary screen of Asinex library, single well per compound;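 further: each compound tested at 20 µM final concentration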
T1 construct: expressed in transfected cells; crude lysate used as a cell-free assay
T1 sequence (Q9QXE7 166-527): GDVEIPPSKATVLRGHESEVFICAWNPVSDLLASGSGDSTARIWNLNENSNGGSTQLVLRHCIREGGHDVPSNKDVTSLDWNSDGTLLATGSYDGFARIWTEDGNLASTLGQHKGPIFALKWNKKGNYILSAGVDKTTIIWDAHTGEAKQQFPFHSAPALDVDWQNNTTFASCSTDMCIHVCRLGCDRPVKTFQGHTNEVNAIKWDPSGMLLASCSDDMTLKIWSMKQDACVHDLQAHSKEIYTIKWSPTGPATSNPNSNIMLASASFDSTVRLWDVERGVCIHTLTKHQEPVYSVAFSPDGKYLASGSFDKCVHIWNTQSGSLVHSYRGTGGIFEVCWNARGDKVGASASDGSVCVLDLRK
Method in brief: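 Cell-free split NanoLuc: lysate of HEK293 cells co-expressing the MeCP2 C-terminal half-SmBiT and TBL1 WD domain-LgBiT, mixed 1:1 with furimazine. After 30 min at room temperature, luminescence was plate-median normalized.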

| Inhibition percent | Structure (SMILES) |
| --- | --- |
| 0.92 | CC1(C)Oc2c(O)cccc2[C@@H]2O[C@@H]3CCN(C(=O)c4cccc(Cn5ccnc5)c4)[C@@H]3C[C@H]21 [BDG_34133887] |
| 1.25 | CN(Cc1ccccc1)[C@@H]1[C@@H](O)[C@H](Oc2ccccc2F)C[C@H]1NC(=O)CC(C)(C)CC(=O)O [BDG_34135529] |
| 5.96 | CN(Cc1ccc(F)cc1)[C@@H]1[C@@H](O)[C@H](Oc2ccccc2F)C[C@H]1NC(=O)CC(C)(C)CC(=O)O [BDG_34135530] |
| 1.33 | CN(Cc1ccc(F)cc1)[C@@H]1[C@@H](O)[C@H](Oc2cccc(F)c2)C[C@H]1NC(=O)c1cccc(C(=O)O)c1 [BDG_34135616] |
| -0.06 | CC1(C)Oc2ccc(C(=O)O)cc2[C@H]2O[C@H]3CCSC[C@H]3C[C@@H]21 [BDG_51128812] |
| -0.16 | Cc1nc(Nc2ncc(C#N)s2)ccc1CC1COCCN(S(C)(=O)=O)C1 (centres unmarked) [BDG_51128826] |
| -1.84 | CC(=O)c1ccc(NC(=O)CN2CCC[C@@H]3O[C@@H]4c5cc(Cl)ccc5OC(C)(C)[C@H]4C[C@@H]32)cc1 [BDG_51129056] |
| 4.58 | COc1cccc2c1OC(C)(C)[C@@H]1C[C@H]3CN(CC(=O)Nc4ccc(C(C)=O)cc4)CC[C@H]3O[C@@H]21 [BDG_51129062] |
| -1.63 | C[C@]12C[C@@H](Cc3ccccc3)N(C(=O)c3cccc(Cn4cccn4)c3)[C@H]1CCCC(=O)N2 [BDH_24639058] |
| 0.23 | Cc1c(NC(=O)CN2[C@H](Cc3ccccc3)C[C@]3(C)NC(=O)CCC[C@H]23)cnn1C [BDH_24639966] |
| -1.17 | O=C1CCCC[C@]2(CN(C(=O)CCc3ccc(F)cc3)C[C@H]2c2ccccc2)N1 [BDH_32219010] |
| 1.88 | C[C@]12C[C@@H](c3ccccc3)N(CC(=O)N3CC(=O)Nc4ccccc43)[C@H]1CCCCCN2 [BDH_32250993] |

same assay, conditions: primary screen of the Asinex library, sheet "Sargen output Asinex library", one well per compound

| Inhibition percent [%] | Structure (SMILES) |
| --- | --- |
| 2.67 | CC1(C)Oc2c(O)cccc2[C@H]2O[C@H]3CCN(CC(=O)N4CC(=O)Nc5ccccc54)[C@@H]3C[C@@H]21 [BDG_34134040] |
| 1.42 | CN(Cc1ccccc1)[C@@H]1[C@@H](O)[C@H](Oc2ccc(F)c(F)c2)C[C@H]1NC(=O)CC(C)(C)CC(=O)O [BDG_34135525] |
| -4.76 | Cc1cc(C)n(-c2cccc(C(=O)N3C[C@@H](c4ccccc4)[C@@]4(CCCCC(=O)N4)C3)c2)n1 [BDH_20395756] |
| 3.31 | Clc1cccc(Cc2cncc(C3CCCN3Cc3ccnc(N4CCOCC4)n3)n2)c1 (centres unmarked) [BDH_27227771] |
| 0.54 | O=C(N1CCC2(CC1)COC(Cc1cccc(F)c1)C2)C1(c2cccc(F)c2)CCOCC1 (centres unmarked) [BDH_32247901] |
| 4.01 | CC(=O)N[C@@]12CN(CC(=O)Nc3cccc4c3CCCC4)CC[C@@H]1[C@@H](c1ccccc1)N(C)C2 [BDH_32251192] |

same assay, conditions: primary screen of the Asinex library, sheet "Sargen output Asinex library", one well per compound, Batch Ref. 1

| Inhibition percent [%] | Structure (SMILES) |
| --- | --- |
| 1.73 | CC1(C)Oc2ccccc2[C@@H]2O[C@@H]3CCN(C(=O)c4cccc(Cn5ccnc5)c4)C[C@@H]3C[C@H]21 [BDG_34133919] |
| 2.78 | CC1(C)Oc2ccc(Cl)cc2[C@H]2O[C@H]3CCN(CC(=O)N4CC(=O)Nc5ccccc54)C[C@@H]3C[C@@H]21 [BDG_34134010] |
| 3.72 | CC1(C)Oc2ccc(Cl)cc2[C@@H]2O[C@@H]3CCN(CC(=O)N4CC(=O)Nc5ccccc54)C[C@@H]3C[C@H]21 [BDG_34134082] |
| -0.70 | Cc1cc(O[C@@H]2C[C@@H](NC(=O)CCCC(=O)O)[C@H](N3CCc4ccccc4C3)[C@H]2O)cc(C(C)C)c1 [BDG_34135452] |
| -0.65 | O=C(O)CCCC(=O)N[C@@H]1C[C@@H](Oc2cccc(Cl)c2)[C@H](O)[C@H]1N1CCc2ccccc2C1 [BDG_34135462] |
| 7.09 | COC(=O)c1ccc(NC(=O)c2cccc(Br)c2OCC(=O)O)cc1 [BDG_51125744] |
| 0.80 | Cc1c(F)cccc1NC(=O)CN1[C@H](Cc2ccccc2)C[C@]2(C)NC(=O)CCC[C@H]12 [BDH_24639961] |
| -1.66 | Cc1cc(C)nc(NCCC(=O)N2[C@H](Cc3ccccc3)C[C@]3(C)NC(=O)CCC[C@H]23)n1 [BDH_24639981] |
